These results are taken from patent publication US20110135634A1, “METHODS OF INHIBITING INFECTION BY DIVERSE SUBTYPES OF DRUG-RESISTANT HIV-1” (priority 2007, published 2011).

For assay [1], the target named is HIV-1 SF162 gp120 (HIV-1 strain SF162) (UniProt P19550). The assay is described as follows: cell-based or functional assay.
The target of assay [2] is HIV-1 JR-FL gp120 (HIV-1 strain JR-FL). The assay is described as follows: cell-based or functional assay.
The subject of assay [3] is HIV-1. The following applies: dose-dependent, treatment period of 10-14 days; cited from earlier work.
Assay [4] concerns the target CCR5 (CC-chemokine receptor 5) (human) (UniProt P51681). The assay is described as follows: cell-based or functional assay.
In assay [5] the target is T1, CCR5 on CEM.NKR-CCR5 cells (Homo sapiens, UniProt P51681).
T1 construct: host or cells: CEM.NKR-CCR5 (transduced human T cell leukemia line)
T1 sequence (P51681 whole entry): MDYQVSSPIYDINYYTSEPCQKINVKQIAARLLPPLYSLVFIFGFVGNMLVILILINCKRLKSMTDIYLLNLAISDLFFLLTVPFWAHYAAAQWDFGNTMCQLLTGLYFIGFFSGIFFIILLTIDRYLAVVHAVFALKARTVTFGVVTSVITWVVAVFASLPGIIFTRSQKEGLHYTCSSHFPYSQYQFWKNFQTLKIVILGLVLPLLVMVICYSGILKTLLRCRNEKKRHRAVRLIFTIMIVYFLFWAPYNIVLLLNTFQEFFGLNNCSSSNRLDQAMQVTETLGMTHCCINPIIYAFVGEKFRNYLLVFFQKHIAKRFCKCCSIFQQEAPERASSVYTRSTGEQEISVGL
Briefly: Competition binding: inhibition of PRO 140-PE binding. To be noted: CEM.NKR-CCR5 cells, flow cytometry. The procedure:
Azide was added to block CCR5 internalization during the assay.

The subject of assay [6] is reporter viruses pseudotyped with HIV-1JR-FL envelope (U87-CD4-CCR5 cells). The assay is described as follows: microbe, parasite or virus in culture. In kind it is cell-based. To be noted: for IC90: HIV-1 envelope JRFL, 1st inhibitor alone.
The test system of assay [7] is reporter viruses pseudotyped with HIV-1SF162 envelope (U87-CD4-CCR5 cells). The assay is described as follows: HIV-1 pseudovirus assay, SF162 envelope. In kind it is cell-based. The text has this: A self-inactivating (SIN) vector was derived from the pNL4-3ΔEnv-luciferase vector (Dragic et al. 1996) by deleting 507 basepairs in the U3 region of the 3′ long terminal repeat (LTR) so as to remove the TATA box and transcription factor binding sites. The human cytomegalovirus promoter was inserted upstream of the luciferase (luc) gene to enable expression of luciferase following integration.
Reporter viruses pseudotyped with HIV-1JR-FL or HIV-1SF162 envelopes were generated by cotransfection of 293T cells with the SIN vector and the appropriate pcDNA env-expressing vector as previously described (Dragic et al. 1996). […] Cultures were incubated for 72 h at 37° C. in DMEM containing 10% fetal bovine serum, […] puromycin, 0.3 mg/mL geneticin, antibiotics, and 0.5% DMSO. Luciferase activity (relative light units or RLU) was measured using. BrightGlo reagent (Promega, Madison, Wis.) according to the manufacturer's instructions.
Experimental design and data analysis were based on the combination index (CI) method (Chou et al. 1991; Chou et al. 1984). […] The mutually exclusive CI formula was used for combinations of CCR5 inhibitors, while the mutually non-exclusive formula was utilized for combinations of inhibitors to distinct targets (Chou et al. 1991). Each test was conducted 4-12 times. Synergy, additivity and antagonism are indicated by CI<1, CI=1 and CI>1, respectively.

The test system of assay [8] is primary R5 HIV-1 isolates JR-FL and Case C 1/85 (CC1/85). The assay is described as follows: In vitro resistance selection and susceptibility testing on PBMC. In kind it is cell-based. The following applies: p24 ELISA. Here is the method: For susceptibility testing, viruses were cultured in vitro on stimulated PBMC. In the presence and absence of serially diluted drug, and the extent of viral replication was determined by p24 ELISA.
A general note: An ELISA detects its analyte on a solid surface through an enzyme-linked reagent.

Assay [9] deals with HIV-1 Env-mediated fusion (HeLa-EnvJRFL and CEM NKR-CCR5 cells). The assay is described as follows: RET cell-cell fusion assay, combination testing (Part II, Example 1).
Experimental: Serial dilutions of small molecules were conducted in DMSO. Subsequent dilutions were conducted in medium to achieve a fmal DMSO concentration in the assay of 0.5%. Peptides and mAbs were diluted in PBS in the absence of DMSO.
Briefly, fluorescein octadecyl ester (F18; Molecular Probes, Eugene, Oreg.; 5 mg/ml in ethanol), was diluted 1:800 in DMEM labeling medium (DMEM; Invitrogen, Carlsbad, Calif.) with 10% fetal bovine serum (FBS; HyClone, Logan, Utah) and adjusted to an A506 of 0.34±10%. […] Both dyes were further diluted 2-fold by addition to cells in T75-cm^2 flasks. HeLa-EnvJRFL and CEM NKR-CCR5 cells were incubated overnight in F18- and R18-containing culture medium, respectively. The following day, medium from HeLa-EnvJRFL cells was removed and 10 ml of 0.5 mM EDTA was added and incubated at 37° C. for 5 min. EDTA was removed and the flask was returned to the incubator for another 5 min followed by striking of the flask to dislodge cells. […] Suspension CEM NKR-CCR5 cells were added directly to a separate 50-ml conical centrifuge tube. […] Ten μl of each cell type (15,000 cells) were seeded into wells of a 384-well plate. Inhibitor compounds were added immediately thereafter to bring the final well volume to 40 μl, and the plates were incubated for 4 h at 37° C. Compounds were tested individually and in combination at a fixed molar ratio or mass ratio over a range of serial dilutions.
The “% RET” was calculated according to the following formula after subtraction of background (blank) readings:
The “% Inhibition” was calculated according to the following formula: […]
IC50 values were generated for all combinations as described above. Combination Index (CI) and Dose Reduction (DR) values were calculated according to the following formulas:
Combinations with CI<1 are determined to be synergistic, whereas combinations with CI>1 are determined to be antagonistic. […]
In this assay, effector cells are labeled with the F18 dye and target cells with the R18 dye. […] Drug susceptibility is measured by adding serial concentrations of drugs to target cells prior to addition of effector cells.
In assay [10] the target is CD4 (human) (UniProt P01730). Briefly: cell-based or functional assay.
[11] abbreviates: Human immunodeficiency virus 1, U87/CD4/CCR5.

Like-named read-outs stand apart in the source and are kept apart here. Some results are limits rather than exact numbers.

Take “PRO 542 (CD4-IgG2) (from UniProt P01730 26-204; P01730 26-203) (Fc fusion)”: in assay [1], the IC50, HIV-1 reporter virus pseudotyped with SF162 envelope, U87-CD4-CCR5 cells was 0.36 nM and the IC90, HIV-1 reporter virus pseudotyped with SF162 envelope, U87-CD4-CCR5 cells amounted to 7.1 nM. For the same molecule, in assay [2], the IC50, HIV-1 reporter virus pseudotyped with JRFL envelope, U87-CD4-CCR5 cells was 0.19 nM and the IC90, HIV-1 reporter virus pseudotyped with JRFL envelope, U87-CD4-CCR5 cells was found to be 2.9 nM.
On to `CCCCN1C(=O)[C@@H]([C@H](O)C2CCCCC2)NC(=O)C12CCN(Cc1ccc(Oc3ccc(C(=O)O)cc3)cc1)CC2` [GW873140], for which the “mean reductions in HIV-1 RNA levels” value in assay [3] is recorded as around 1 log10.
For `CCO/N=C(\c1ccc(Br)cc1)C1CCN(C2(C)CCN(C(=O)c3c(C)cc[n+]([O-])c3C)CC2)CC1` [SCH-C], the “mean reductions in HIV-1 RNA levels” value in assay [3] is around 1 log10.
On to anti-CCR5 mAb 2D7 (antibody), for which, in [4], the IC50, HIV-1 reporter virus pseudotyped with JRFL envelope, U87-CD4-CCR5 cells turned out to be 8.8 nM; the IC50, HIV-1 reporter virus pseudotyped with SF162 envelope, U87-CD4-CCR5 cells is 2.2 nM; the IC90, HIV-1 reporter virus pseudotyped with JRFL envelope, U87-CD4-CCR5 cells is above 200 nM; the IC90, HIV-1 reporter virus pseudotyped with SF162 envelope, U87-CD4-CCR5 cells turned out to be 74 nM.
The term IC90 denotes the concentration needed for an effect of 90%. For orientation: IC50 means the concentration that inhibits the measured activity by half. `COC[C@@H](c1ccc(C(F)(F)F)cc1)N1CCN(C2(C)CCN(C(=O)c3c(C)ncnc3C)CC2)C[C@@H]1C` [SCH-D, 1-[(4,6-dimethyl-5-pyrimidinyl)carbonyl]-4-[4-[2-methoxy-1(R)-4-(trifluoromethyl)phenyl]ethyl-3(S)-methyl-1-piperazinyl]-4-methylpiperidine]: the “inhibition of PRO 140-PE binding (in words)” value in [5] is “modest levels of inhibition”. In addition, the IC90 in assay [6] (read-out: IC90) turned out to be 44 nM; in assay [7] (HIV-1 envelope SF162, 1st inhibitor alone, read-out: IC90), 14 nM. Besides, the IC50 in [7] (HIV-1 envelope SF162, 1st inhibitor alone, read-out: IC50) was 0.34 nM. In assay [3], the “mean reductions in HIV-1 RNA levels” value is recorded as around 1 log10. Further, the “inhibition of PRO 140 escape mutants” value in assay [8] is listed as “efficiently inhibited”.
Regarding `Cc1nnc(C(C)C)n1C1CC2CCC(C1)N2CC[C@H](NC(=O)C1CCC(F)(F)CC1)c1ccccc1` (stereo partly shown) [UK-427,857, reference compound], the IC90 in [6] turned out to be 46 nM; in assay [7] (setting [11]), 13 nM. For the same molecule, the IC50 in assay [6] (setting [11]) came out at 7.4 nM; in assay [7] (setting [11]) it was 0.87 nM. In addition, in assay [9] (2D7 in combination with the labelled inhibitor, 1:1 molar ratio), the “Mean Dose Reduction (2D7)” value is on record as 2.45 ± 0.12. For the same molecule, the “Mean CI” value in assay [9] (PRO 140 in combination with the labelled inhibitor, 1:1 molar ratio, Combination Index at IC50) is recorded as 0.59 ± 0.04. For the same molecule, the “Mean Dose Reduction (Cpd in combination)” value in [9] (labelled inhibitor in combination with 2D7, 1:1 molar ratio) amounted to 5.73 ± 0.54.
As for anti-CD4 mAb Leu-3A (antibody), the HIV-1 Env-mediated cell-cell fusion, RET assay in assay [10] stood at 500 ng/mL.
Take “RANTES: CC-chemokine, natural peptide ligand of CCR5”: the “inhibition of HIV-1 pseudovirus entry” value in assay [6] (compound alone (data not shown)) was “Neither TAK-779 nor RANTES mediated consistent, high-level inhibition”.
